The source of these data is article PMC11822212, “High-throughput screening identifies Aurora kinase B as a critical therapeutic target for Merkel cell carcinoma” (Nature Communications, 2025).

SMILES strings stand for the structures. Read-outs that look alike come from different tables or passages of the source.

Test in all cases: qHTS cell viability (CellTiter-Glo, 72 h; primary and follow-up small molecule screen)
Holding throughout (type): cell-based, human
(qHTS replaces the single test concentration by a dilution series.)

The test system of assay [1] is UISO cells (VN-MCC).
Assay [2] has as its system MCC13 cells (VN-MCC).
Assay [3] deals with MKL-2 cells (VP-MCC).
For assay [4], the system named is MKL-1 cells (VP-MCC).
For assay [5], the system named is MCC26 cells (VN-MCC).
In assay [6] the test system is WAGA cells (VP-MCC).
[7] abbreviates: follow-up screen, UISO, replicate 1.
Where [8] appears, read: follow-up screen, UISO, replicate 2.
[9] abbreviates: follow-up screen, UISO, replicate 3.
The mark [10] stands for this setting: follow-up screen, MCC13, replicate 1.
Where [11] appears, read: follow-up screen, MCC13, replicate 2.
The mark [12] stands for this setting: follow-up screen, MCC13, replicate 3.
Setting [13] is: follow-up screen, MKL-2, replicate 1.
The mark [14] stands for this setting: follow-up screen, MKL-2, replicate 2.
[15] abbreviates: follow-up screen, MKL-2, replicate 3.
The mark [16] stands for this setting: follow-up screen, MKL-1, replicate 1.
The mark [17] stands for this setting: follow-up screen, MKL-1, replicate 2.
Where [18] appears, read: follow-up screen, MKL-1, replicate 3.
[19] abbreviates: follow-up screen, MCC26, replicate 1.
[20] abbreviates: follow-up screen, MCC26, replicate 2.
The mark [21] stands for this setting: follow-up screen, MCC26, replicate 3.
Where [22] appears, read: follow-up screen, WAGA, replicate 1.
The mark [23] stands for this setting: follow-up screen, WAGA, replicate 2.
The mark [24] stands for this setting: follow-up screen, WAGA, replicate 3.

On to `C[C@H]1O[C@@H](O[C@H]2[C@@H](O)C[C@H](O[C@H]3[C@@H](O)C[C@H](O[C@H]4CC[C@@]5(C)[C@H](CC[C@@H]6[C@@H]5CC[C@]5(C)[C@@H](C7=CC(=O)OC7)CC[C@]65O)C4)O[C@@H]3C)O[C@@H]2C)C[C@H](O)[C@@H]1O` [Digitoxin], for which, in assay [1], the “Area under the dose-response curve (AUC) UISO Replicate 1” value (“Area … (AUC) UISO Replicate 1” for short) is 201.4, the “Area under the dose-response curve (AUC) UISO Replicate 2” value (from here on “Area … (AUC) UISO Replicate 2”) turned out to be 226.6 and the “Area under the dose-response curve (AUC) UISO Replicate 3” value (from here on “Area … (AUC) UISO Replicate 3”) came out at 210.4. Moreover, in assay [2], the “Area under the dose-response curve (AUC) MCC13 Replicate 1” value (from here on “Area … (AUC) MCC13 Replicate 1”) was determined as 232.3, the “Area under the dose-response curve (AUC) MCC13 Replicate 2” value (shortened to “Area … (AUC) MCC13 Replicate 2”) stood at 249.2 and the “Area under the dose-response curve (AUC) MCC13 Replicate 3” value (“Area … (AUC) MCC13 Replicate 3” below) was determined as 235.6. For the same molecule, in assay [3], the “Area under the dose-response curve (AUC) MKL-2 Replicate 1” value (from here on “Area … (AUC) MKL-2 Replicate 1”) turned out to be 287.6, the “Area under the dose-response curve (AUC) MKL-2 Replicate 2” value (shortened to “Area … (AUC) MKL-2 Replicate 2”) is listed as 297.9 and the “Area under the dose-response curve (AUC) MKL-2 Replicate 3” value (“Area … (AUC) MKL-2 Replicate 3” below) is reported as 317.5. For the same molecule, in assay [4], the “Area under the dose-response curve (AUC) MKL-1 Replicate 1” value (from here on “Area … (AUC) MKL-1 Replicate 1”) amounted to 269.2, the “Area under the dose-response curve (AUC) MKL-1 Replicate 2” value (shortened to “Area … (AUC) MKL-1 Replicate 2”) is on record as 287.7 and the “Area under the dose-response curve (AUC) MKL-1 Replicate 3” value (“Area … (AUC) MKL-1 Replicate 3” below) is 299.6. For the same molecule, in assay [5], the “Area under the dose-response curve (AUC) MCC26 Replicate 1” value (from here on “Area … (AUC) MCC26 Replicate 1”) came out at 279.4, the “Area under the dose-response curve (AUC) MCC26 Replicate 2” value (shortened to “Area … (AUC) MCC26 Replicate 2”) is given as 294.5 and the “Area under the dose-response curve (AUC) MCC26 Replicate 3” value (“Area … (AUC) MCC26 Replicate 3” below) amounted to 239.6. In assay [6], the “Area under the dose-response curve (AUC) WAGA Replicate 1” value (from here on “Area … (AUC) WAGA Replicate 1”) worked out at 276.0, the “Area under the dose-response curve (AUC) WAGA Replicate 2” value (from here on “Area … (AUC) WAGA Replicate 2”) is on record as 299.5 and the “Area under the dose-response curve (AUC) WAGA Replicate 3” value (from here on “Area … (AUC) WAGA Replicate 3”) was 286.7.

As for `[O-][n+]1ccccc1SSc1cccc[n+]1[O-]` [Dipyrithione], the “Area … (AUC) UISO Replicate 1” value in assay [1] (setting [7]) worked out at 241.8. Besides, in assay [1] (setting [8]), the “Area … (AUC) UISO Replicate 2” value is 283.0. The “Area … (AUC) UISO Replicate 3” value in assay [1] (setting [9]) was found to be 225.1. Moreover, the “Area … (AUC) MCC13 Replicate 1” value in assay [2] (setting [10]) turned out to be 333.5. Besides, the “Area … (AUC) MCC13 Replicate 2” value in assay [2] (setting [11]) came to 320.8. In addition, the “Area … (AUC) MCC13 Replicate 3” value in assay [2] (setting [12]) turned out to be 288.3. For the same molecule, the “Area … (AUC) MKL-2 Replicate 1” value in assay [3] (setting [13]) is listed as 287.6. The “Area … (AUC) MKL-2 Replicate 2” value in assay [3] (setting [14]) worked out at 277.7. For the same molecule, the “Area … (AUC) MKL-2 Replicate 3” value in assay [3] (setting [15]) is 248.6. The “Area … (AUC) MKL-1 Replicate 1” value in assay [4] (setting [16]) is 254.8. The “Area … (AUC) MKL-1 Replicate 2” value in assay [4] (setting [17]) came to 246.8. Moreover, in assay [4] (setting [18]), the “Area … (AUC) MKL-1 Replicate 3” value is on record as 245.5. Further, the “Area … (AUC) MCC26 Replicate 1” value in assay [5] (setting [19]) is on record as 305.7. Moreover, the “Area … (AUC) MCC26 Replicate 2” value in assay [5] (setting [20]) was determined as 302.8. In addition, in assay [5] (setting [21]), the “Area … (AUC) MCC26 Replicate 3” value is reported as 280.4. The “Area … (AUC) WAGA Replicate 1” value in assay [6] (setting [22]) is on record as 319.9. Also, the “Area … (AUC) WAGA Replicate 2” value in assay [6] (setting [23]) was determined as 346.1. For the same molecule, the “Area … (AUC) WAGA Replicate 3” value in assay [6] (setting [24]) was found to be 356.9.

Regarding `CCN(CC)C(=S)SSC(=S)N(CC)CC` [Disulfiram], the “Area … (AUC) UISO Replicate 1” value in assay [1] (setting [7]) stood at 247.9. Further, in assay [1] (setting [8]), the “Area … (AUC) UISO Replicate 2” value is reported as 258.4. Further, in assay [1] (setting [9]), the “Area … (AUC) UISO Replicate 3” value is given as 254.5. Further, the “Area … (AUC) MCC13 Replicate 1” value in assay [2] (setting [10]) amounted to 436.7. Besides, the “Area … (AUC) MCC13 Replicate 2” value in assay [2] (setting [11]) is on record as 415.1. In addition, the “Area … (AUC) MCC13 Replicate 3” value in assay [2] (setting [12]) came to 342.5. Besides, the “Area … (AUC) MKL-2 Replicate 1” value in assay [3] (setting [13]) was 243.8. In assay [3] (setting [14]), the “Area … (AUC) MKL-2 Replicate 2” value came out at 235.0. Also, in assay [3] (setting [15]), the “Area … (AUC) MKL-2 Replicate 3” value is 298.1. The “Area … (AUC) MKL-1 Replicate 1” value in assay [4] (setting [16]) was 287.1. In addition, in assay [4] (setting [17]), the “Area … (AUC) MKL-1 Replicate 2” value is recorded as 274.6. Also, the “Area … (AUC) MKL-1 Replicate 3” value in assay [4] (setting [18]) stood at 256.7. The “Area … (AUC) MCC26 Replicate 1” value in assay [5] (setting [19]) was 398.0. In addition, the “Area … (AUC) MCC26 Replicate 2” value in assay [5] (setting [20]) is given as 401.3. In assay [5] (setting [21]), the “Area … (AUC) MCC26 Replicate 3” value stood at 322.7. Also, the “Area … (AUC) WAGA Replicate 1” value in assay [6] (setting [22]) was 389.6. For the same molecule, the “Area … (AUC) WAGA Replicate 2” value in assay [6] (setting [23]) stood at 433.6. For the same molecule, the “Area … (AUC) WAGA Replicate 3” value in assay [6] (setting [24]) was found to be 454.9.
